Legend:
bamyardgrass = experiment: Test B flood test barnyardgrass; format: in vivo, Echinochloa crus-galli
Method in brief: (§1)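 Each value is a visual injury score relative to controls, with 10 meaning complete control and 0 no effect. Evaluation took place twelve to sixteen days after the 2-leaf-stage plants were treated and kept in the greenhouse.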

wheat = experiment: Test B pre/postemergence wheat; format: in vivo, Triticum aestivum
Method in brief: (§2)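 Test chemicals in a non-phytotoxic solvent mixture with surfactant were sprayed preemergence onto planted seeds and postemergence onto plants 2 to 18 cm tall (1- to 4-leaf stage). After twelve to sixteen days in a greenhouse, injury was visually rated against untreated controls from 0 (no effect) to 10 (complete control).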

rice = experiment: Test B flood test rice; format: in vivo, Oryza sativa
Method in brief: as §1

duck salad = experiment: Test B flood test duck salad; format: in vivo, Heteranthera limosa
Method in brief: as §1

blackgrass = experiment: Test B pre/postemergence blackgrass; format: in vivo, Alopecurus myosuroides
Method in brief: as §2

giant foxtail = experiment: Test B pre/postemergence giant foxtail; format: in vivo, Setaria faberii
Method in brief: as §2

pigweed = experiment: Test B pre/postemergence pigweed; format: in vivo, Amaranthus retroflexus
Method in brief: as §2

wild oat = experiment: Test B pre/postemergence wild oat; format: in vivo, Avena fatua
Method in brief: as §2

bedstraw = experiment: Test B pre/postemergence bedstraw; format: in vivo, Galium aparine
Method in brief: as §2

sugar beet = experiment: Test B pre/postemergence sugar beet; format: in vivo, Beta vulgaris
Method in brief: as §2

morningglory = experiment: Test B pre/postemergence morningglory; format: in vivo, Ipomoea hederacea
Method in brief: as §2

velvetleaf = experiment: Test B pre/postemergence velvetleaf; format: in vivo, Abutilon theophrasti
Method in brief: as §2

smallflower flatsedge = experiment: Test B flood test smallflower flatsedge; format: in vivo, Cyperus difformis
Method in brief: as §1

rape = experiment: Test B pre/postemergence rape; format: in vivo, Brassica napus
Method in brief: as §2

purple nutsedge = experiment: Test B pre/postemergence purple nutsedge; format: in vivo, Cyperus rotundus
Method in brief: as §2

soybean = experiment: Test B pre/postemergence soybean; format: in vivo, Glycine max
Method in brief: as §2

[1] = Postemergence (flood test species), Rate 125 g/ha, scale of 0 to 10 where 0 is no effect and 10 is complete control
[2] = Rate 62 g/ha, Postemergence section, flood test species, scale of 0 to 10 where 0 is no effect and 10 is complete control
[3] = Rate 250 g/ha, Postemergence (flood test), scale 0 to 10, 0 is no effect, 10 is complete control
[4] = Preemergence, Rate 62 g/ha, scale 0 to 10 (0 no effect, 10 complete control)
[5] = Preemergence, Rate 125 g/ha, 0 is no effect, 10 is complete control
[6] = Preemergence, Rate 250 g/ha, scale 0 to 10, 0 is no effect, 10 is complete control
[7] = Preemergence, Rate 500 g/ha, scale 0 to 10 (0 no effect, 10 complete control)
[8] = Rate 62 g/ha, Postemergence, scale of 0 to 10 where 0 is no effect and 10 is complete control
[9] = Rate 250 g/ha, Postemergence, scale 0 to 10, 0 is no effect, 10 is complete control
[10] = Rate 500 g/ha, Postemergence, scale 0 to 10
[11] = Rate 500 g/ha, listed under Postemergence (flood test species), scale 0 to 10
[12] = Postemergence, Rate 125 g/ha, scale of 0 to 10 where 0 is no effect and 10 is complete control

## CCN(CC)C(=O)n1oc(=O)n(Cc2ccccc2)c1=O [Compound 152]
bamyardgrass; [1]
  Barnyardgrass plant response rating: 0
bamyardgrass; [2]
  Barnyardgrass plant response rating: 0
bamyardgrass; [3]
  Plant response rating, Barnyardgrass: 0
bamyardgrass; Rate 500 g/ha, listed under Postemergence (flood test species), scale 0 to 10, 0 no effect, 10 complete control
  Barnyardgrass plant response rating: 0
wheat; [4]
  Wheat plant response rating: 0
wheat; [5]
  Wheat plant response rating (0 to 10 scale): 0
wheat; [6]
  Wheat plant response rating: 0
wheat; [7]
  Wheat plant response rating: 0
wheat; [8]
  Wheat plant response rating: 0
wheat; [9]
  Plant response rating, Wheat: 0
wheat; [10]
  Wheat plant response rating: 0
rice; [1]
  Rice plant response rating: 0
rice; [2]
  Rice plant response rating: 0
rice; [3]
  Plant response rating, Rice: 0
rice; [11]
  Rice plant response rating: 0
Duck salad; [1]
  Ducksalad plant response rating: 0
Duck salad; [2]
  Ducksalad plant response rating: 0
Duck salad; [3]
  Plant response rating, Ducksalad: 0
Duck salad; [11]
  Ducksalad plant response rating: 0
blackgrass; [12]
  Blackgrass plant response rating: 0
blackgrass; [4]
  Blackgrass plant response rating: 0
blackgrass; [5]
  Blackgrass plant response rating (0 to 10 scale): 0
blackgrass; [6]
  Blackgrass plant response rating: 0
blackgrass; [7]
  Blackgrass plant response rating: 3
blackgrass; [8]
  Blackgrass plant response rating: 0
blackgrass; [9]
  Plant response rating, Blackgrass: 0
blackgrass; [10]
  Blackgrass plant response rating: 2
Giant foxtail; [12]
  Giant foxtail plant response rating: 0
Giant foxtail; [4]
  Giant foxtail plant response rating: 0
Giant foxtail; [5]
  Giant foxtail plant response rating (0 to 10 scale): 0
Giant foxtail; [6]
  Giant foxtail plant response rating: 3
Giant foxtail; [7]
  Giant foxtail plant response rating: 5
Giant foxtail; [8]
  Giant foxtail plant response rating: 0
Giant foxtail; [9]
  Plant response rating, Giant foxtail: 0
Giant foxtail; [10]
  Giant foxtail plant response rating: 3
pigweed; [12]
  Redroot pigweed plant response rating: 0
pigweed; [4]
  Redroot pigweed plant response rating: 0
pigweed; [5]
  Redroot pigweed plant response rating (0 to 10 scale): 0
pigweed; [6]
  Redroot pigweed plant response rating: 0
pigweed; [7]
  Redroot pigweed plant response rating: 0
pigweed; [8]
  Redroot pigweed plant response rating: 0
pigweed; [9]
  Plant response rating, Redroot pigweed: 0
pigweed; [10]
  Redroot pigweed plant response rating: 0
Wild oat; [4]
  Wild oats plant response rating: 0
Wild oat; [5]
  Wild oats plant response rating (0 to 10 scale): 0
Wild oat; [6]
  Wild oats plant response rating: 0
Wild oat; [7]
  Wild oats plant response rating: 0
Wild oat; [8]
  Wild oats plant response rating: 0
Wild oat; [9]
  Plant response rating, Wild oats: 0
Wild oat; [10]
  Wild oats plant response rating: 0
bedstraw; [12]
  Bedstraw plant response rating: 0
bedstraw; [4]
  Bedstraw plant response rating: 0
bedstraw; [5]
  Bedstraw plant response rating (0 to 10 scale): 0
bedstraw; [6]
  Bedstraw plant response rating: 0
bedstraw; [7]
  Bedstraw plant response rating: 0
bedstraw; [8]
  Bedstraw plant response rating: 0
bedstraw; [9]
  Plant response rating, Bedstraw: 0
bedstraw; Rate 500 g/ha, Postemergence, scale 0 to 10, 0 no effect, 10 complete control
  Bedstraw plant response rating: 0
Sugar beet; [12]
  Sugarbeets plant response rating: 0
Sugar beet; [4]
  Sugarbeets plant response rating: 0
Sugar beet; [5]
  Sugarbeets plant response rating (0 to 10 scale): 0
Sugar beet; [6]
  Sugarbeets plant response rating: 0
Sugar beet; [7]
  Sugarbeets plant response rating: 0
Sugar beet; [8]
  Sugarbeets plant response rating: 0
Sugar beet; [9]
  Plant response rating, Sugarbeets: 0
Sugar beet; [10]
  Sugarbeets plant response rating: 0
morningglory; [12]
  Morningglory plant response rating: 0
morningglory; [4]
  Morningglory plant response rating: 0
morningglory; [5]
  Morningglory plant response rating (0 to 10 scale): 0
morningglory; [6]
  Morningglory plant response rating: 0
morningglory; [7]
  Morningglory plant response rating: 0
morningglory; [8]
  Morningglory plant response rating: 0
morningglory; [9]
  Plant response rating, Morningglory: 0
morningglory; [10]
  Morningglory plant response rating: 0
velvetleaf; [4]
  Velvetleaf plant response rating: 0
velvetleaf; [5]
  Velvetleaf plant response rating (0 to 10 scale): 0
velvetleaf; [6]
  Velvetleaf plant response rating: 0
velvetleaf; [7]
  Velvetleaf plant response rating: 0
velvetleaf; [8]
  Velvetleaf plant response rating: 0
velvetleaf; [9]
  Plant response rating, Velvetleaf: 0
velvetleaf; [10]
  Velvetleaf plant response rating: 0
Smallflower flatsedge; [1]
  S. Flatsedge plant response rating: 0
Smallflower flatsedge; [2]
  S. Flatsedge plant response rating: 0
Smallflower flatsedge; [3]
  Plant response rating, S. Flatsedge: 0
Smallflower flatsedge; [11]
  S. Flatsedge plant response rating: 0
rape; [12]
  Rape plant response rating: 0
rape; [4]
  Rape plant response rating: 0
rape; [5]
  Rape plant response rating (0 to 10 scale): 0
rape; [6]
  Rape plant response rating: 0
rape; [7]
  Rape plant response rating: 0
rape; [8]
  Rape plant response rating: 0
rape; [9]
  Plant response rating, Rape: 0
rape; [10]
  Rape plant response rating: 0
Purple nutsedge; [12]
  Nutsedge plant response rating: 0
Purple nutsedge; [4]
  Nutsedge plant response rating: 0
Purple nutsedge; [5]
  Nutsedge plant response rating (0 to 10 scale): 0
Purple nutsedge; [6]
  Nutsedge plant response rating: 0
Purple nutsedge; [7]
  Nutsedge plant response rating: 0
Purple nutsedge; [8]
  Nutsedge plant response rating: 0
Purple nutsedge; [9]
  Plant response rating, Nutsedge: 0
Purple nutsedge; [10]
  Nutsedge plant response rating: 0
soybean; [12]
  Soybean plant response rating: 0
soybean; [4]
  Soybean plant response rating: 0
soybean; [5]
  Soybean plant response rating (0 to 10 scale): 0
soybean; [6]
  Soybean plant response rating: 0
soybean; [7]
  Soybean plant response rating: 0
soybean; [8]
  Soybean plant response rating: 0
soybean; [9]
  Plant response rating, Soybean: 1
soybean; [10]
  Soybean plant response rating: 1

Source: patent publication US6737383B1, “Herbicidal oxadiazolidines” (priority 1999, dated 2004)
